Read-outs that look alike come from different tables or passages of the source.
Key:
[1] = system: DH10B E. coli cells; test: Toxicity of NH2Y: growth of E. coli in GMML medium and on agar plates; assay type: cell-based
Text: (§1) Toxicity and uptake of NH2Y. Evolution of an NH2Y-specific aminoacyl-tRNA synthetase (RS) requires that NH2Y is taken up by E. coli, that it is not toxic, and that it is not incorporated into proteins by any endogenous RSs. All three requirements were met by NH2Y. […] The presence of DTT however, caused cells to grow at a rate 25-35% more slowly than those in the presence of only NH2Y or absence of NH2Y/DTT.

[2] = target: T1, E. coli ribonucleotide reductase (RNR) (Escherichia coli, UniProt P00452); conditions: inactivation of wt α2β2 by N3ADP/dGTP; 20 s time scale; cited from earlier work
T1 construct: made in house; host or cells: E. coli DH10B (NH2Y-α2s)

[3] = system: DH10B E. coli cells; test: Qualitative assay for cellular uptake of NH2Y by LC-MS; assay type: cell-based; conditions: 1 mM NH2Y with or without 0.1 mM DTT
Procedure: Qualitative assay for cellular uptake of NH2Y by LC-MS. The uptake assay was performed as previously described with minor modifications.^48 DH10B E. coli cells were grown to saturation at 37° C. in GMML in the presence of 1 mM NH2Y and 0.1 mM DTT and subsequently harvested and lysed as outlined previously. Chromatography of the crude extract was performed on a Zorbax SB-C18 (5 μm, 4.6×150 mm) column with a linear gradient from 5% to 25% MeCN in 0.1% TFA solution over 8 min at 0.5 mL/min. Under these conditions, NH2Y elutes at ˜13% MeCN. For HPLC-ESI-MS analysis, NH2Y standard solutions were prepared in water.
as §1

[4] = cited from earlier work

**Q.** With `O[C@H](CS)[C@H](O)CS` (racemic) [DTT, DL-dithiothreitol] as the compound, how does the slower growth rate ([1]; Escherichia coli, 0.1 mM) read?
**A.** Its slower growth rate is 25-35%.

**Q.** Which “initial Y122• lost (equivalent amount of N• formed)” value [2] does the source give for `[N-]=[N+]=N[C@@H]1[C@H](O)[C@@H](COP(=O)(O)OP(=O)(O)O)O[C@H]1n1cnc2c(N)ncnc21` [N3ADP, 2′-Azido-2′-deoxyadenosine-5′-diphosphate] here?
**A.** Its value is 50-60%.

**Q.** Which “growth rates in the presence of substance” value ([1]; NH2Y 1 mM, GMML medium) does the source give for `Nc1cc(C[C@H](N)C(=O)O)ccc1O` [NH2Y, 3-aminotyrosine] here?
**A.** Its value is “not significantly affected”.

**Q.** What about the “cellular uptake (HPLC and ESI-MS of cell extracts)” value [3] of the same compound?
**A.** The value was “observed in all cell extracts”.

**Q.** And the reduction potential ([4]; pH 7.0)?
**A.** The reduction potential was 0.64 V.

**Q.** What about the “reduction potential lower than that of Y” value ([4]; pH 7.0) of the same compound?
**A.** The value was 0.19 V.

**Q.** And the “reduction potential lower than that of Y” value ([4]; pH 7)?
**A.** The value was 190 mV.
